The values below come from article PMC10375898 (2023).

The test system of assay [1] is 5'-(GACAGCUGCUGUC)2-3' duplex (single 5'CUG/3'GUC) (RNA, mismatch bulge abasic) GACAGCUGCUGUC
The experiment in a line: To-Pro-1 dye displacement (fluorescence). The conditions noted are these: Na+ 200 mM NaCl, 8 mM NaH2PO4; To-Pro-1 (100 nM) displaced; Kd from competitive fit (Ki).

Assay [2] concerns r(CUG)10 (RNA, repeat) CUGCUGCUGCUGCUGCUGCUGCUGCUGCUG
The experiment in a line: in vitro Chem-CLIP (photo-cross-linking pull-down). The conditions noted are these: covalent; 26 ± 7% pulled down at 100 μM.

Assay [3] relates to r(CUG)8 with GAAA hairpin loop (RNA, repeat) CCGCUGCUGCUGCUGCGAAAGCUGCUGCUGCUGCGG
As to the kind of experiment: in vitro Chem-CLIP (photo-cross-linking pull-down). The conditions noted are these: covalent; 100 μM.

For assay [4], the system named is r(CUG)10 (RNA, repeat) CUGCUGCUGCUGCUGCUGCUGCUGCUGCUG
As to the kind of experiment: competitive Chem-CLIP. As to conditions: competes with 50 μM of 1; 0 to 500 μM.

Assay [5] relates to 5'-(GACAGCUGCUGUC)2-3' duplex (single 5'CUG/3'GUC) (RNA, mismatch bulge abasic) GACAGCUGCUGUC
As to the kind of experiment: NMR (WaterLOGSY, 1D 1H imino and aromatic). The conditions noted are these: 10 mM Na2HPO4/NaH2PO4, pH 6.0, 0.05 mM EDTA.

Assay [6] has the same test system. The experiment in a line: fluorescence titration. The conditions noted are these: Na+ 200 mM NaCl; 8 mM NaH2PO4, pH 7.0, 1 mM EDTA, 40 µg/mL BSA, room temperature; 100 nM dye.

For `C#CCCC1(CCC(=O)NC2=Nc3cccc4cccc(c34)N2)N=N1`, the Kd in assay [1] amounted to 1200 ± 200 nM. The binding entry in assay [2] and in assay [3] was “yes” each time.
In assay [1], `CCC(=O)NC1=Nc2cccc3cccc(c23)N1` returned a Kd of 1400 ± 300 nM. Besides, the binding result in assay [4] and in assay [5] was “yes” each time.
In assay [6], `C[n+]1c(C=C2C=CN(CCC[N+](C)(C)C)c3ccccc32)sc2ccccc21` came in with a Kd of 31 ± 2 nM.

The Kd is the constant that tells how readily two partners part at equilibrium. Low readings indicate a tighter complex, high ones a looser complex.
